Laboratory results taken from patent US9309224B2 (Deciphera Pharmaceuticals, LLC, priority 2013, dated 2016).

Tests used:
M-NFS-60 cells = assay: M-NFS-60 cell proliferation assay; format: cell-based; details: 67 h incubation, resazurin
Experimental: M-NFS-60 Cell Proliferation Assay A serial dilution of test compound was dispensed into a 384-well black clear bottom plate (Corning, Corning, N.Y.). Two thousand five hundred cells were added per well in 50 μL complete growth medium. […] IC50 values were calculated from a series of percent inhibition values determined at a range of inhibitor concentrations using software routines as implemented in the GraphPad Prism software package.

[1] = target: T1, unphosphorylated PDGFRβ kinase (uPDGFRβ, Seq. ID No. 3) (Homo sapiens, UniProt P09619); assay: Unphosphorylated PDGFRβ kinase assay (pyruvate kinase/lactate dehydrogenase coupled); format: biochemical; details: ATP 500 μM
T1 construct: purchased DeCode
Excerpt: Unphosyhorylated PDGFRβ (uPDGFRβkinase (Seq. ID No. 3) assay

[2] = target: T2, unphosphorylated c-KIT kinase (uKIT, Seq. ID no. 2) (Homo sapiens, UniProt P10721); assay: uKit kinase assay (pyruvate kinase/lactate dehydrogenase coupled); format: biochemical; details: ATP 2000 μM
T2 construct: uKit with N-terminal GST fusion used for
Experimental: In this assay, the oxidation of NADH (thus the decrease at A340 nm) was continuously monitored spectrophometrically. […] The inhibition reaction was started by mixing serial diluted test compound with the above reaction mixture. The absorption at 340 nm was monitored continuously for 4 hours at 30° C. on Synergy 2 plate reader (BioTech).

osteoclast precursors = assay: Osteoclast tartrate-resistant acid phosphatase assay; format: cell-based; details: 7-14 days, RANKL and M-CSF
Experimental: Diluted compound was transferred to a 384-well black clear bottom plate. Two-thousand five hundred osteoclast precursors (Lonza, Walkersville, Md.) were added per well in growth media containing Receptor Activator of Nuclear Factor Kappa-beta ligand (RANKL) and M-CSF (R&D Systems, Minneapolis, Minn.). Plates were incubated for 7-14 days at 37 degrees Celsius, 5% CO2, and 95% humidity to allow differentiation of osteoclast precursors. […] Tartrate-resistant acid phosphatase activity in the supernatant samples was determined using an acid phosphatase assay kit (Sigma, St. Louis, Mo.). Absorbance was measured at 550 nm using a plate reader. Data was analyzed using Prism software (Graphpad, San Diego, Calif.) to calculate IC50 values.

[3] = target: T3, unphosphorylated c-FMS kinase (uFMS, Seq. ID no. 1) (Homo sapiens, UniProt P07333); assay: uFMS kinase assay (pyruvate kinase/lactate dehydrogenase coupled); format: biochemical; details: ATP 500 μM
T3 construct: purchased Millipore
T3 sequence (P07333 538-972): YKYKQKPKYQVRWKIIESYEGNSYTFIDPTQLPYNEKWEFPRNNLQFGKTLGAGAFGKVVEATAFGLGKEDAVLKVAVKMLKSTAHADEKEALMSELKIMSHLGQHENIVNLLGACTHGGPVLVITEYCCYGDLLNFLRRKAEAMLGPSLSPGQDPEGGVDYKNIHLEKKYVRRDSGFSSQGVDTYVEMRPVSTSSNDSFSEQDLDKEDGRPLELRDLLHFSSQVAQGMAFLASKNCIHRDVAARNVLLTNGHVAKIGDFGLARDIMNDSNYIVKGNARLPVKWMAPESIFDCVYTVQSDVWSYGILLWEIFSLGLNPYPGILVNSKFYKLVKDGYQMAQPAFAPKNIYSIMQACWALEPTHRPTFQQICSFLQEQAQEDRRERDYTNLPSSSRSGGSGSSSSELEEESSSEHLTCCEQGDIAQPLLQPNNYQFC
Experimental: In this assay, the oxidation of NADH (thus the decrease at A340 nm) was continuously monitored spectrophometrically. The reaction mixture (100 μL) contained FMS (purchased from Millipore) (10 nM), polyE4Y (1 mg/mL), MgCl2 (10 mM), pyruvate kinase (4 units), lactate dehydrogenase (0.7 units), phosphoenol pyruvate (1 mM), NADH (0.28 mM) and ATP (500 μM) in 90 mM Tris buffer containing 0.2% octyl-glucoside and 1% DMSO, pH 7.5. The inhibition reaction was started by mixing serial diluted test compound with the above reaction mixture. The absorption at 340 nm was monitored continuously for 4 hours at 30° C. on Synergy 2 plate reader. The reaction rate was calculated using the 3 to 4 h time frame. Percent inhibition was obtained by comparison of reaction rate with that of a control (i.e. in the absence of test compound). IC50 values were calculated from a series of percent inhibition values determined at a range of inhibitor concentrations using software routines as implemented in the GraphPad Prism software package.

[4] = target: T4, phospho-FMS in THP-1 cells (Homo sapiens, UniProt P07333); assay: Phospho-FMS ELISA assay in THP-1 cells; format: cell-based; details: 4 hours compound, M-CSF stimulated; read-out: pFMS inhibition in THP-1 cells
T4 construct: endogenous in cells; host or cells: THP-1 (ATCC TIB-202)
T4 sequence (P07333 20-972): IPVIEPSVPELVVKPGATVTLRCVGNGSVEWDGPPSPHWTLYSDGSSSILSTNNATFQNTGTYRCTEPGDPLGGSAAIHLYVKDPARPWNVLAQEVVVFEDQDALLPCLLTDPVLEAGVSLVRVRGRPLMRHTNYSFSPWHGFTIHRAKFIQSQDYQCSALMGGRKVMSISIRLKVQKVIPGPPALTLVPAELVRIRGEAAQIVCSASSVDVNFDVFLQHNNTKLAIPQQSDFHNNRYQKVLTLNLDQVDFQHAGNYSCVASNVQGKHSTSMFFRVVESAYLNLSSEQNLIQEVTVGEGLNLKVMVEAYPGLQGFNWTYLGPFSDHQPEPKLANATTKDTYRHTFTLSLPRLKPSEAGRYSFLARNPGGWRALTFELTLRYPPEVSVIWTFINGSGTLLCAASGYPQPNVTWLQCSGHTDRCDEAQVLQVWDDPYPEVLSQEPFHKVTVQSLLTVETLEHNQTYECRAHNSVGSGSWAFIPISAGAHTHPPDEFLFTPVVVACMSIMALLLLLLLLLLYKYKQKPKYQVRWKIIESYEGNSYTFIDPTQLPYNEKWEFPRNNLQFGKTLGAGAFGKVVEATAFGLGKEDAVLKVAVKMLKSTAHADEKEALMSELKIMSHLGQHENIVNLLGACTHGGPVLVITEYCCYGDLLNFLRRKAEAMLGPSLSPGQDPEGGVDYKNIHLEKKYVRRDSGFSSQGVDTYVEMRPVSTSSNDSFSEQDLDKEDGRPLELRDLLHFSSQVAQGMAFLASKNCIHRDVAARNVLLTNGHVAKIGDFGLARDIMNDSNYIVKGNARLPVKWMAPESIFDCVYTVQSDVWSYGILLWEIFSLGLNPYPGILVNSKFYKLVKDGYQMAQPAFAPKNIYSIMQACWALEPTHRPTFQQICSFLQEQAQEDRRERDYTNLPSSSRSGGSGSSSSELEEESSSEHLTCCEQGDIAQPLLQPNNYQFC
Experimental: In a separate 96 well black clear bottom plate, one hundred and fifty thousand THP-1 cells were added per well in 100 μL in assay medium. Fifty microliters of diluted compound was then added to the cells. […] Lysates were prepared and used to perform the phospho-FMS ELISA as described by the manufacturer (catalog #DYC3268, R & D Systems, Minneapolis, Minn.). GraphPad Prism was used to calculate IC50 values obtained from data generated from the ELISA assay.

T1 sequence (P09619 557-1105): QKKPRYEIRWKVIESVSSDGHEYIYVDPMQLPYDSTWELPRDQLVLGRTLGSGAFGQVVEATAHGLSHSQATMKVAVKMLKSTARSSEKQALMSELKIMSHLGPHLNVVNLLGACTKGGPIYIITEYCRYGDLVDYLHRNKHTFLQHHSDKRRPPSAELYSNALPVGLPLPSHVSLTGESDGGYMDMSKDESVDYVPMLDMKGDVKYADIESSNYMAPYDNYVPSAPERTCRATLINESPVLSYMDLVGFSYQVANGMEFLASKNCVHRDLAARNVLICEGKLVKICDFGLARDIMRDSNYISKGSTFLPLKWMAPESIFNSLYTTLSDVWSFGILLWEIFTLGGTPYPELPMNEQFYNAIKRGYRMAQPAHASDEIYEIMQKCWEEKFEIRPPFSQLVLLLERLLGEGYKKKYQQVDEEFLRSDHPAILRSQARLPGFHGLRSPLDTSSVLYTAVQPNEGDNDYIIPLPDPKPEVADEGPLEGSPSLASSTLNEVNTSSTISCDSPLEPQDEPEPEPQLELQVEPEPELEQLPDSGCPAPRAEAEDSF
T2 sequence (P10721 with tags, fused parts or gaps): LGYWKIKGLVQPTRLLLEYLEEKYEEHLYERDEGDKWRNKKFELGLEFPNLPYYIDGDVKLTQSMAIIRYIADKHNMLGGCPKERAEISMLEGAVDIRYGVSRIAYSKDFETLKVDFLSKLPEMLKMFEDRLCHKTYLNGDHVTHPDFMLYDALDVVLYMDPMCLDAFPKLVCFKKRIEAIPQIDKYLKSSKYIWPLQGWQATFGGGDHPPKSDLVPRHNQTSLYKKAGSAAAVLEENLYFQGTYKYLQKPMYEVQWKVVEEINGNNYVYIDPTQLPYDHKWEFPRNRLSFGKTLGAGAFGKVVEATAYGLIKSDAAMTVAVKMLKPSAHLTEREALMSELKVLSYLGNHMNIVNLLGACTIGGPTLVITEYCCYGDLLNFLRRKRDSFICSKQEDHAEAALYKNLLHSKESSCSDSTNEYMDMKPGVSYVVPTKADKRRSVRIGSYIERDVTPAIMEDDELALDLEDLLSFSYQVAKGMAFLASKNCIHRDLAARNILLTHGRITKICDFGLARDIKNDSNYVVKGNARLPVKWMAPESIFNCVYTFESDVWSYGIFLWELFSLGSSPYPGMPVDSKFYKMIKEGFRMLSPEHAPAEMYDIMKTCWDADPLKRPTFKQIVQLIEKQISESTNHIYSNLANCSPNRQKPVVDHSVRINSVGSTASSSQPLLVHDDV

Row | Structure (SMILES) | IC50 (M-NFS-60 cells) [nM] | IC50 [1] [nM] | IC50 [2] [nM] | IC50 (osteoclast precursors; Osteoclast) [nM] | IC50 [3] [nM] | IC50 [4] [nM] | IC50 (osteoclast precursors) [nM]
1 | CC(=O)Nc1cc(Oc2ccc(NC(=O)NC(=O)C3CCOCC3)nc2C)ccn1 [Example 7, N-((5-((2-acetamidopyridin-4-yl)oxy)-6-methylpyridin-2-yl)carbamoyl)tetrahydro-2H-pyran-4-carboxamide] | 10 to 100 | 100 to 1000 | > 1000 | 10 to 100 | 10 to 100 | < 10 | 
2 | CC(C)(C)C(=O)NC(=O)Nc1ccc(Oc2ccnc(NC(=O)N3CCC3)c2)cn1 [Example 48, N-(4-((6-(3-pivaloylureido)pyridin-3-yl)oxy)pyridin-2-yl)azetidine-1-carboxamide] | < 10 | 10 to 100 | 100 to 1000 | < 10 | < 10 | < 10 | 
3 | COCCNC(=O)Nc1cc(Oc2ccc(NC(=O)NC(=O)C(C)(C)C)nc2)ccn1 [Example 82, N-((5-((2-(3-(2-methoxyethyl)ureido)pyridin-4-yl)oxy)pyridin-2-yl)carbamoyl)pivalamide] | 100 to 1000 | > 1000 | > 1000 | 10 to 100 | 10 to 100 | < 10 | 
4 | CCC(=O)Nc1cc(Oc2ccc(NC(=O)NC(=O)C(C)(C)OC)nc2)ccn1 [Example 37, 2-methoxy-2-methyl-N-((5-((2-propionamidopyridin-4-yl)oxy)pyridin-2-yl)carbamoyl)propanamide] | 10 to 100 | 100 to 1000 | > 1000 | 10 to 100 | < 10 | < 10 | 
5 | COC1(C(=O)NC(=O)Nc2ccc(Oc3ccnc(NC(C)=O)c3)cn2)CCCC1 [Example 67, N-((5-((2-acetamidopyridin-4-yl)oxy)pyridin-2-yl)carbamoyl)-1-methoxycyclopentanecarboxamide] | < 10 | 10 to 100 | 100 to 1000 | < 10 | 10 to 100 | < 10 | 
6 | CNC(=O)c1cc(Oc2ccc(NC(=O)NC(=O)C3(C)CCOCC3)nc2)ccn1 [Example 70, N-methyl-4-((6-(3-(4-methyltetrahydro-2H-pyran-4-carbonyl)ureido)pyridin-3-yl)oxy)picolinamide] | 100 to 1000 | > 1000 | > 1000 | 10 to 100 | 100 to 1000 | 10 to 100 | 
7 | CNC(=O)c1cc(Oc2ccc(NC(=O)NC(=O)C3(OC)CCCC3)nc2)ccn1 [Example 64, 4-((6-(3-(1-methoxycyclopentanecarbonyl)ureido)pyridin-3-yl)oxy)-N-methylpicolinamide] | 10 to 100 | > 1000 | 100 to 1000 | 10 to 100 | < 10 | < 10 | 
8 | CCC(=O)Nc1cc(Oc2ccc(NC(=O)NC(=O)C(C)(C)C)nc2)ccn1 [Example 24, N-((5-((2-propionamidopyridin-4-yl)oxy)pyridin-2-yl)carbamoyl)pivalamide] | 10 to 100 | 100 to 1000 | 100 to 1000 | < 10 | 10 to 100 | < 10 | 
9 | CNC(=O)c1cc(Oc2ccc(NC(=O)NC(=O)C(C)(C)OC)nc2)ccn1 [Example 58, 4-((6-(3-(2-methoxy-2-methylpropanoyl)ureido)pyridin-3-yl)oxy)-N-methylpicolinamide] | 10 to 100 | > 1000 | > 1000 | 10 to 100 | 10 to 100 | < 10 | 
10 | COC(C)(C)C(=O)NC(=O)Nc1ccc(Oc2ccnc(NC(=O)C3CC3)c2)cn1 [Example 31, N-(4-((6-(3-(2-methoxy-2-methylpropanoyl)ureido)pyridin-3-yl)oxy)pyridin-2-yl)cyclopropanecarboxamide] | 10 to 100 | 100 to 1000 | 100 to 1000 | < 10 | < 10 | < 10 | 
11 | COC(C)(C)C(=O)NC(=O)Nc1ccc(Oc2ccnc(NC(C)=O)c2)c(C)n1 [Example 20, N-((5-((2-acetamidopyridin-4-yl)oxy)-6-methylpyridin-2-yl)carbamoyl)-2-methoxy-2-methylpropanamide] | < 10 | > 1000 | > 1000 | 10 to 100 | 10 to 100 | < 10 | 
12 | CN(C)C1CN(C(=O)Nc2cc(Oc3ccc(NC(=O)NC(=O)C(C)(C)C)nc3)ccn2)C1 [Example 77, 3-(dimethylamino)-N-(4-((6-(3-pivaloylureido)pyridin-3-yl)oxy)pyridin-2-yl)azetidine-1-carboxamide] | < 10 | 10 to 100 | 100 to 1000 | < 10 | < 10 | 10 to 100 | 
13 | CN1CCC(C(=O)Nc2cc(Oc3ccc(NC(=O)NC(=O)C(C)(C)C)nc3)ccn2)C1 (centres unmarked) [Example 55, 1-methyl-N-(4-((6-(3-pivaloylureido)pyridin-3-yl)oxy)pyridin-2-yl)pyrrolidine-3-carboxamide] | > 1000 | > 1000 | > 1000 | 100 to 1000 | 10 to 100 |  | 
14 | CN(C)C1CC(C(=O)Nc2cc(Oc3ccc(NC(=O)NC(=O)C(C)(C)C)nc3)ccn2)C1 (centres unmarked) [Example 61, (1r,3r)-3-(dimethylamino)-N-(4-((6-(3-pivaloylureido)pyridin-3-yl)oxy)pyridin-2-yl)cyclobutanecarboxamide] | 100 to 1000 | 100 to 1000 | > 1000 |  | 10 to 100 |  | 10 to 100
15 | CNC(=O)c1cc(Oc2ccc(NC(=O)NC(=O)C3(C(F)(F)F)CCC3)nc2)ccn1 [Example 72, N-methyl-4-((6-(3-(1-(trifluoromethyl)cyclobutanecarbonyl)ureido)pyridin-3-yl)oxy)picolinamide] | 100 to 1000 | > 1000 | > 1000 | 10 to 100 | 10 to 100 |  | 
16 | CN(C)CC(=O)Nc1cc(Oc2ccc(NC(=O)NC(=O)C(C)(C)C)nc2)ccn1 [Example 54, N-((5-((2-(2-(dimethylamino)acetamido)pyridin-4-yl)oxy)pyridin-2-yl)carbamoyl)pivalamide] | 100 to 1000 | > 1000 | > 1000 | 100 to 1000 | 10 to 100 |  | 
17 | CN(C)C(=O)Nc1cc(Oc2ccc(NC(=O)NC(=O)C3CCOCC3)nc2)ccn1 [Example 51, N-((5-((2-(3,3-dimethylureido)pyridin-4-yl)oxy)pyridin-2-yl)carbamoyl)tetrahydro-2H-pyran-4-carboxamide] | 10 to 100 | 10 to 100 | 100 to 1000 | 10 to 100 | < 10 |  | 
18 | CC(C)C(=O)NC(=O)Nc1ccc(Oc2ccnc(NC(=O)C3CCN(C)CC3)c2)cn1 [Example 57, N-(4-((6-(3-isobutyrylureido)pyridin-3-yl)oxy)pyridin-2-yl)-1-methylpiperidine-4-carboxamide] | > 1000 | > 1000 | > 1000 | 100 to 1000 | 100 to 1000 |  | 
19 | CC(C)(C)C(=O)NC(=O)Nc1ccc(Oc2ccnc(NC(=O)N3CCCC3)c2)cn1 [Example 78, N-(4-((6-(3-pivaloylureido)pyridin-3-yl)oxy)pyridin-2-yl)pyrrolidine-1-carboxamide] | < 10 | 10 to 100 | 10 to 100 | < 10 | < 10 |  | 
20 | CCC(=O)Nc1cc(Oc2ccc(NC(=O)NC(=O)C3CCOCC3)nc2)ccn1 [Example 32, N-((5-((2-propionamidopyridin-4-yl)oxy)pyridin-2-yl)carbamoyl)tetrahydro-2H-pyran-4-carboxamide] | 10 to 100 | 10 to 100 | > 1000 | 10 to 100 | 10 to 100 |  | 
21 | CC(=O)Nc1cc(Oc2ccc(NC(=O)NC(=O)C3(C)CCC3)nc2C)ccn1 [Example 43, N-((5-((2-acetamidopyridin-4-yl)oxy)-6-methylpyridin-2-yl)carbamoyl)-1-methylcyclobutanecarboxamide] | < 10 | 100 to 1000 | 100 to 1000 | < 10 | < 10 |  | 
22 | CC(=O)Nc1cc(Oc2ccc(NC(=O)NC(=O)CC3CCOCC3)nc2)ccn1 [Example 6, N-((5-((2-acetamidopyridin-4-yl)oxy)pyridin-2-yl)carbamoyl)-2-(tetrahydro-2H-pyran-4-yl)acetamide] | 100 to 1000 | 10 to 100 | > 1000 | 10 to 100 | 10 to 100 |  | 
